Experimental data from patent US12473262B2, “Aryl hydrocarbon receptor activators” (Oregon State University, priority 2019, dated 2025).
Where two headings read alike, the source gives them in different places.

Experiments:
[1] = target: aryl hydrocarbon receptor (AhR) (Mus musculus (Mouse), UniProt P30561); assay: AhR ligand screening: AhRE-luciferase reporter in transfected Hepa1 cells; type: cell-based; details: for Fold @ 1 nM: fold change of luciferase expression at 1 nM test compound relative to vehicle (0.1% DMSO); for Fold @ 100 nM: fold change of luciferase expression at 100 nM test compound relative to vehicle (0.1% DMSO); for Fold relative to benchmark @ 100 nM: luciferase expression at 100 nM test compound relative to 100 nM benchmark compound 11-cl-BBQ; for Fold @ 10 uM: fold change of luciferase expression at 10 uM test compound relative to vehicle (0.1% DMSO)
Chain of aryl hydrocarbon receptor (AhR) (P30561 10-805): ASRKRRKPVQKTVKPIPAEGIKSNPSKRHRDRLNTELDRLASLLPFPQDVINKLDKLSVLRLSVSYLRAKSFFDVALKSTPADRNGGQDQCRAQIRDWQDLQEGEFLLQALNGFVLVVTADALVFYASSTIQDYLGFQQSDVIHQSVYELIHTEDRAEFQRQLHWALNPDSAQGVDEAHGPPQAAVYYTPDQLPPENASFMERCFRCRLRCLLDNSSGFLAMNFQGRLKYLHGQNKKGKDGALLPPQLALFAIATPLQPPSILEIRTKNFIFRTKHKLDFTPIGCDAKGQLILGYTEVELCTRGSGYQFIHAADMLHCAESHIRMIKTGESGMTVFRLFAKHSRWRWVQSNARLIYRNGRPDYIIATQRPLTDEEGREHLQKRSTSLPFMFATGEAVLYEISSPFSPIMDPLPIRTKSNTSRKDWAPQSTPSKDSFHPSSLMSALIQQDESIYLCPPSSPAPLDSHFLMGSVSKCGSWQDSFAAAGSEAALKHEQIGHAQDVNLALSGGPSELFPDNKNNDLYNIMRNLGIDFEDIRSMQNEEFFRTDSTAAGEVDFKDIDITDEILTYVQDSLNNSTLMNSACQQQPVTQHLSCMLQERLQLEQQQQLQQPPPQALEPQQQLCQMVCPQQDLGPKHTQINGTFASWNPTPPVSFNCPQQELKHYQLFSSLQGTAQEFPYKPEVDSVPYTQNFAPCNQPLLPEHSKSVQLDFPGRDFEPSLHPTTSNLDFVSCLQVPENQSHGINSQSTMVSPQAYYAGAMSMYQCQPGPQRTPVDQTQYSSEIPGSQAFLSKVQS
Chain of aryl hydrocarbon receptor (AhR) (P53762 whole entry partner): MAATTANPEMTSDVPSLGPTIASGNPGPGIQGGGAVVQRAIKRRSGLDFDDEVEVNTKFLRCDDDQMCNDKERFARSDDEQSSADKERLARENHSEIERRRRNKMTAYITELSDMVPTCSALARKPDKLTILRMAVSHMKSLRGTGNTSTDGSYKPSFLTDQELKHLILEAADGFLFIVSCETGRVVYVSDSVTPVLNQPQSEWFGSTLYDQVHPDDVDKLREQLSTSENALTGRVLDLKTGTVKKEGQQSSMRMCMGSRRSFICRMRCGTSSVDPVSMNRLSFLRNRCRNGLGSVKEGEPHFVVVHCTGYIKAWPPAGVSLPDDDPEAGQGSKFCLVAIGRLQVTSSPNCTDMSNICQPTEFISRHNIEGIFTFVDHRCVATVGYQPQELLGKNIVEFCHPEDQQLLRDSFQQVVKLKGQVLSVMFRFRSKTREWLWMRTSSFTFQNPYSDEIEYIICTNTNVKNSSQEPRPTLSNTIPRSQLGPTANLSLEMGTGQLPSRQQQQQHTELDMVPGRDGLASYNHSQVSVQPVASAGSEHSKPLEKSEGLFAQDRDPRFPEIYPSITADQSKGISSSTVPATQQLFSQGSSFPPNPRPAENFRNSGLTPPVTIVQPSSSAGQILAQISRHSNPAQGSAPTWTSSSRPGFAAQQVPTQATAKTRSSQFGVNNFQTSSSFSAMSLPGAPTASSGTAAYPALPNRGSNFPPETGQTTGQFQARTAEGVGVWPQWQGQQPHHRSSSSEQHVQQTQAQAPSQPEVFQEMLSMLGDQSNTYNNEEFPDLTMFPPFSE
Procedure, shortened: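 Values are fold luciferase induction relative to vehicle (0.1% DMSO), read by luminometry of lysates from Hepa1 cells carrying an AhRE-driven luciferase reporter. Cells were seeded at 1×10^4 per well, grown overnight and treated with compound before lysis.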

[2] = Liver microsomal stability, mouse; details: for Rem @ MLM × 30 min: mouse liver microsomes, 1 μM compound, 0.5 mg/ml protein; for half-life at 1 μM / microsomal CLint at 1 μM: mouse, liver microsomes, pH 7.4
[3] = In vivo PK study, intravenous and oral administration in male mice; design: species or system mouse; details: plasma; for C0: read-out: C0_Cmax
Description: In Vivo PK Study Pharmacokinetics of Exemplary Compounds 362 and 893 Following an Intravenous and Oral Administration in Male C57BL/6J Mice.
Male C57BL/6J mice, approximately 8-10 weeks old, were obtained from the vivarium of Fundación Ciencia & Vida Chile (Santiago, Chile). Dosing solution of Compound 362 for PO administration was formulated in a vehicle containing 40% DMSO, 20% Kolliphor EL, 40% Propylene Glycol at 0.8 mg/mL. Dosing solution of Compound 362 for IV administration was formulated in a vehicle containing 30% DMSO, 20% Kolliphor EL, 50% PBS at […].
Male […] mice, approximately 8-11 weeks old, 22-27 grams were obtained from the vivarium Fundación Ciencia & Vida Chile (Santiago, Chile). Animals were acclimated for a minimum period of 4 days upon arrival at the testing facility. Animals were weighed, identified by marking the tail with numbers using a non-toxic permanent marker and designated into the following treatment groups on the day of dosing:
Group 1 animals received an IV administration via caudal vein of 2 mg/kg PRXS0362 dosing solution.
Group 2 animals received a PO administration via feeding tubes (20 gauge) of 8 mg/kg PRXS0362 dosing solution.
Terminal whole blood was collected via cardiac puncture for group 1 at the following time points: 5, 10, 15, 30, 60, 120, 240, 360, and 480 minutes. Non-dosed mice were used to collect samples of zero time points. For the group 2 at the following time point: 15, 30, 60, 120, 240, 360, and 480 minutes.
Whole blood, approximately 300 μL per time point, was collected into microtainer tubes with EDTA (K2). Blood samples were centrifuged immediately at approximately 9,000 G at 4° C. for 5 minutes and plasma separated. Plasma samples were placed into individually labeled tubes and stored in a −80° C. freezer prior to LC/MS/MS analysis.
The whole brain was collected at each point only for both groups, for this the animals were euthanized with CO2, decapitated, the brain was extracted weighed, frozen in liquid nitrogen and stored at −80° C. prior to LC/MS/MS analysis.
Compound 893 was tested by the same protocol as above.

[4] = Liver microsomal stability, rat; details: for Rem @ RLM × 30 min: rat liver microsomes, 1 μM compound, 0.5 mg/ml protein; for half-life at 1 μM / microsomal CLint at 1 μM: rat, liver microsomes, pH 7.4
Description: The assessment of metabolic stability of testing compounds was performed using human, mouse, rat, dog and monkey liver microsomes (20 mg protein/ml). Each reaction mixture contained 42.5 μL of 0.1 M potassium phosphate buffer pH 7.4, containing respective LM protein (final concentration 0.5 mg/ml). 2.5 μL of the compound stock solution was added in it (1 μM final concentration). The reaction was initiated by the addition of 5 μL NADPH solution (final Concentration 1 mM). At different time points (0, 5, 15, and 30 minutes), samples were quenched with 200 μL of cold acetonitrile containing ISTD Propranolol. Samples were centrifuged at 3500 rpm for 20 mM at 4° C. Supernatant was subjected to LC-MS/MS analysis for quantification. Verapamil was used as a positive control.

CYP-2C19 = CYP-2C19 (Homo sapiens (Human), UniProt P33261); assay: CYP panel profile: P450 inhibition, CYP-2C19; type: in vitro ADME; details: human liver microsomes
Chain of CYP-2C19 (P33261 whole entry): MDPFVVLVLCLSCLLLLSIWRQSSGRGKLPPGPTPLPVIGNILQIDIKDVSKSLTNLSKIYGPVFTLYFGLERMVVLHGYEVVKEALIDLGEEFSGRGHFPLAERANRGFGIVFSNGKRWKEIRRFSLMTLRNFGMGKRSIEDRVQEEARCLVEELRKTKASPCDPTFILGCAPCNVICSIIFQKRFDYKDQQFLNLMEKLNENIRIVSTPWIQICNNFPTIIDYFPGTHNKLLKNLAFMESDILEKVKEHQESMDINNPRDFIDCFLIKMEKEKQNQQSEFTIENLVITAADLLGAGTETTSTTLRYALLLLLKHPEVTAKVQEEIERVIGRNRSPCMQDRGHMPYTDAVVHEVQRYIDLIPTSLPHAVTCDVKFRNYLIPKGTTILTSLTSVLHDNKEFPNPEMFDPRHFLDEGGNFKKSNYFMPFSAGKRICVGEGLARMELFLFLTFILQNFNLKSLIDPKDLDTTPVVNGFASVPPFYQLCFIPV
Description: (§1) 5. CYP Panel Profile: P450 Inhibition
(§2) From 10 mM stock solutions of test compounds, a dilution plate was prepared diluting serially starting from 5 mM up to 2 μM in Acetonitrile/DMSO or Methanol/DMSO Human liver Microsomes were added at required concentration as per specific CYP isoform in a deep well assay plate (1A2, 2C9, 2D6, 2B6, 2C8, 2C19, and 3A4). Compounds were spiked in all wells from dilution plate at final concentrations starting from 50 μM up to 0.02 μM, except for positive and negative control. Specific substrate were added to all wells and reactions were pre-incubated for 10 min. To start reactions, NADPH was added to all wells at 1 mM final concentration. Assay plate was mixed by vortexing and incubated at 37° C. for […] for 3A4.20 min for (1A2, 2C9, 2B6, 2C8, 2D6) and […] for 2C19. A quencher with chilled acetonitrile suitable internal standard was added. Samples were centrifuged and supernatants were collected and subjected to LC-MS/MS analysis for determination.

CYP-2B6 = CYP-2B6 (Homo sapiens (Human), UniProt P20813); assay: CYP panel profile: P450 inhibition, CYP-2B6; type: in vitro ADME; details: human liver microsomes
Chain of CYP-2B6 (P20813 whole entry): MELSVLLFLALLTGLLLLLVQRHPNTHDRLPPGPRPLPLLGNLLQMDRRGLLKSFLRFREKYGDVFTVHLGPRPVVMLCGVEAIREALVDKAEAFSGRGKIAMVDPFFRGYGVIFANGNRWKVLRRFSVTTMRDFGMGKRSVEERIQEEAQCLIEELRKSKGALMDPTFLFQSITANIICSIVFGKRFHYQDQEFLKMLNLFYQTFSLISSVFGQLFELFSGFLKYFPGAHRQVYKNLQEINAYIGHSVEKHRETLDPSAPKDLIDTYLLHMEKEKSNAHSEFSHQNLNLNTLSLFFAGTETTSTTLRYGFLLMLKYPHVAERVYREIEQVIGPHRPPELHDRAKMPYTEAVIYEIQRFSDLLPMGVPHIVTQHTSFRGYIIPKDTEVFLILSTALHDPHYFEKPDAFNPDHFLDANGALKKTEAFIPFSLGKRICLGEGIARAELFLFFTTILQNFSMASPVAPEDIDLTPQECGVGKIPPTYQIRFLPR
Description: as §1, §2

CYP-2C9 = CYP-2C9 (Homo sapiens (Human), UniProt P11712); assay: CYP panel profile: P450 inhibition, CYP-2C9; type: in vitro ADME; details: human liver microsomes
Chain of CYP-2C9 (P11712 whole entry): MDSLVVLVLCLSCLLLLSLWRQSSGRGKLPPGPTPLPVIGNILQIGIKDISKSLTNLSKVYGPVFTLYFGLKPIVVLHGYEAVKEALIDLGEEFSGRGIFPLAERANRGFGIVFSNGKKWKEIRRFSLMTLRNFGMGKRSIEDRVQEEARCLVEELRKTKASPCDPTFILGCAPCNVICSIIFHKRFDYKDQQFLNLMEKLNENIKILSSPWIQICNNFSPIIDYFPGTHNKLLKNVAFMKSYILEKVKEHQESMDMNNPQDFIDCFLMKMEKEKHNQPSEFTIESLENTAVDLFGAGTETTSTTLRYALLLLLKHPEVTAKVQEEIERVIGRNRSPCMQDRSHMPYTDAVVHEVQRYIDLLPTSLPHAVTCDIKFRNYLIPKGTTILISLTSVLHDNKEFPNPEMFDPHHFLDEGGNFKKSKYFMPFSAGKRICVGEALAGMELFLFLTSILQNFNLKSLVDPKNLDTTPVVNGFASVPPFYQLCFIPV
Description: as §1, §2

CYP-3A4 = CYP-3A4 (Homo sapiens (Human), UniProt P08684); assay: CYP panel profile: P450 inhibition, CYP-3A4; type: in vitro ADME; details: human liver microsomes
Chain of CYP-3A4 (P08684 whole entry): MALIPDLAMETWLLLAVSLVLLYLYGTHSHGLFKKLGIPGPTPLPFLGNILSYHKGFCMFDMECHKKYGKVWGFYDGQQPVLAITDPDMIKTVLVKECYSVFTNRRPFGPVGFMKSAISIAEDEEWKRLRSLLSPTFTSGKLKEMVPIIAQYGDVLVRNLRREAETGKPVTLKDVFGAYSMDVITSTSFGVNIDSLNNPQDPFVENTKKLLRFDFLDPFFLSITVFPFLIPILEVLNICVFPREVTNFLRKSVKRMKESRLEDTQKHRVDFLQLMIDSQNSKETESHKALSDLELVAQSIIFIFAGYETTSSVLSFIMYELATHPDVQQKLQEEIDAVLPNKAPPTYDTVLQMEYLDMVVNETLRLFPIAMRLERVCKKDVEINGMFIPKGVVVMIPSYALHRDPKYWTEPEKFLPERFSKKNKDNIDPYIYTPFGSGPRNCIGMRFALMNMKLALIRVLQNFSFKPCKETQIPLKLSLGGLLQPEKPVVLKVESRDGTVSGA
Description: as §1, §2

CYP-1A2 = CYP-1A2 (Homo sapiens (Human), UniProt P05177); assay: CYP panel profile: P450 inhibition, CYP-1A2; type: in vitro ADME
Chain of CYP-1A2 (P05177 whole entry): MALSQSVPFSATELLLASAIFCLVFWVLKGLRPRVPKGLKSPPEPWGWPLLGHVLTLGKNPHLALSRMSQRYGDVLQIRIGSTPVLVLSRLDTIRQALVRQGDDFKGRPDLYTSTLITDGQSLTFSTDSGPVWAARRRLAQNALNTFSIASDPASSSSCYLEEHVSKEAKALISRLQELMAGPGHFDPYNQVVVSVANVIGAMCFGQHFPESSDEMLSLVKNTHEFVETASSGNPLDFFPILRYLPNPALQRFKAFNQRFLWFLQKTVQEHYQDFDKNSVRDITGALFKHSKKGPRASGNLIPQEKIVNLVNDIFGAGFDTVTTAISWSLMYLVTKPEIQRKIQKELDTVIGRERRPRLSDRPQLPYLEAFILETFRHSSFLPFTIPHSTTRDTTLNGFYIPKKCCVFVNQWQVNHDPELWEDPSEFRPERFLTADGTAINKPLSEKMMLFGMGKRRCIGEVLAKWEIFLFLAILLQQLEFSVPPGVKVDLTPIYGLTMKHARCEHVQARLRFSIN
Description: as §1, §2

CYP-2C8 = CYP-2C8 (Homo sapiens (Human), UniProt P10632); assay: CYP panel profile: P450 inhibition, CYP-2C8; type: in vitro ADME; details: human liver microsomes
Chain of CYP-2C8 (P10632 whole entry): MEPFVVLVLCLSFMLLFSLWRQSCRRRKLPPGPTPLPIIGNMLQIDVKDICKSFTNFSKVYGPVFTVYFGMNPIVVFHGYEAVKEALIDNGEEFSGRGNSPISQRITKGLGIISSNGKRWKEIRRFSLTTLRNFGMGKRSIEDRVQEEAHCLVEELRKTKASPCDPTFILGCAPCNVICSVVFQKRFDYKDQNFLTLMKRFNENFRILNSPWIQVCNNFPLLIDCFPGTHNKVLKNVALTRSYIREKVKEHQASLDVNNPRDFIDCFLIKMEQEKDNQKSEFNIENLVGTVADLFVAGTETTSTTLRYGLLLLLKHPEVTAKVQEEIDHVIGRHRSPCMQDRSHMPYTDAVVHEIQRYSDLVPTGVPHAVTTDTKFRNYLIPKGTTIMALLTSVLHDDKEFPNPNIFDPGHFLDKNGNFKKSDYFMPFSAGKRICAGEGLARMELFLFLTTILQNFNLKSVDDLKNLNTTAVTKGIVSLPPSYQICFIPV
Description: as §1, §2

CYP-2D6 = CYP-2D6 (Homo sapiens (Human), UniProt P10635); assay: CYP panel profile: P450 inhibition, CYP-2D6; type: in vitro ADME; details: human liver microsomes
Description: as §1, §2

[5] = Liver microsomal stability, human; details: for Rem @ HLM × 30 min: human liver microsomes, 1 μM compound, 0.5 mg/ml protein; for half-life at 1 μM / microsomal CLint at 1 μM: human, liver microsomes, pH 7.4
[6] = human liver microsomes, read-out: CYP-1A2 IC50

Row | SMILES | Fold @ 1 nM [1] | Fold @ 100 nM [1] | Fold relative to benchmark @ 100 nM [1] | Rem @ MLM × 30 min [2] | half-life at 1 μM [2] | microsomal CLint at 1 μM [2] | Rem @ RLM × 30 min [4] | half-life at 1 μM [4] | microsomal CLint at 1 μM [4] | IC50 (CYP-2C19) | IC50 (CYP-2B6) | IC50 (CYP-2C9) | Fold @ 10 uM [1] | IC50 (CYP-3A4) | IC50 (CYP-2C8) | IC50 (CYP-2D6) | IC50 (CYP-1A2; [6]) | Rem @ HLM × 30 min [5] | half-life at 1 μM [5] | microsomal CLint at 1 μM [5] | other results
1 | O=c1c2cccc3cccc(c32)c2nc3cc(Cl)ccc3n12 [Compound 362, 6-chloro-3,10-diazapentacyclo[10.7.1.0^2,10.0^4,9.0^16,20]icosa-1(19),2,4(9),5,7,12,14,16(20),17-nonaen-11-one] | 16 fold | 22 fold | 1 fold | 12.0% | 9.8 min | 141 µL/min/mg | 14.5% | 11.4 min | 121 µL/min/mg | – | – | – | – | – | – | – | – | – | – | – | CL_CL/F ([3]; IV 2 mg/Kg): 4.418 L/[Kg*h]; Vd_Vd/F ([3]; IV 2 mg/Kg): 5.67 L/kg; thalf ([3]; IV 2 mg/Kg): 0.889 h; CL_CL/F ([3]; PO 8 mg/Kg): 7.86 L/[Kg*h]; Vd_Vd/F ([3]; PO 8 mg/Kg): 8.314 L/kg; thalf ([3]; PO 8 mg/Kg): 0.733 h; AUC(0-inf) ([3]; mouse, IV 2 mg/Kg): 453 ng·h/mL; AUC(0-t) ([3]; mouse, IV 2 mg/Kg): 451 ng·h/mL; MRT ([3]; mouse, IV 2 mg/Kg): 52.3 min; C0 ([3]; mouse, IV 2 mg/Kg): 215 ng/mL; bioavailability ([3]; mouse, PO 8 mg/Kg vs IV 2 mg/Kg): 56.2%; AUC(0-inf) ([3]; mouse, PO 8 mg/Kg): 1020 ng·h/mL; AUC(0-t) ([3]; mouse, PO 8 mg/Kg): 1020 ng·h/mL; MRT ([3]; mouse, PO 8 mg/Kg): 98 min; Tmax ([3]; mouse, PO 8 mg/Kg): 60 min; C0 ([3]; mouse, PO 8 mg/Kg): 427 ng/mL
2 | Clc1ccc2c(c1)nc1n2Cc2cccc3cccc-1c23 [Compound 435, 6-chloro-3,10-diazapentacyclo[10.7.1.0^2,10.0^4,9.0^16,20]icosa-1(19),2,4(9),5,7,12,14,16(20),17-nonaene] | 4 fold | 28 fold | 0.7 fold | – | – | – | – | – | – | > 50 µM | > 50 µM | > 50 µM | 60 fold | 5.3 µM | 19.2 µM | > 50 µM | – | – | – | – | IC50 (CYP-1A2): < 0.02 µM
3 | O=C(c1ccccc1)n1c(-c2cccc3ccccc23)nc2cc(Cl)ccc21 [Compound 494] | 1 fold | 29 fold | 0.94 fold | – | – | – | – | – | – | 5.2 µM | > 45 µM | 4.2 µM | 43 fold | 1.2 µM | 2.5 µM | > 50 µM | 0.7 µM | – | – | – | –
4 | O=C(c1ccccc1)n1c(-c2cccc3ccccc23)nc2ccc(Cl)cc21 [Compound 495] | 2.3 fold | 25 fold | 0.81 fold | – | – | – | – | – | – | 1.4 µM | 19.3 µM | 5.6 µM | 59 fold | 5.3 µM | 1.9 µM | 32.6 µM | 0.3 µM | – | – | – | –
5 | O=C(c1ccc(F)c(F)c1)n1c(-c2cccc3ccccc23)nc2cc(Cl)ccc21 [Compound 529] | 2 fold | 41 fold | 1.03 fold | – | – | – | – | – | – | 3.6 µM | 9.6 µM | 3.5 µM | 52 fold | 1.2 µM | 9.6 µM | > 50 µM | 0.6 µM | – | – | – | –
6 | O=C(c1cccc2ccccc12)n1c(-c2cccc3ccccc23)nc2cc(Cl)ccc21 [Compound 704] | – | – | – | – | – | – | – | – | – | 4.6 µM | 8.2 µM | 8.9 µM | – | 3.9 µM | 5.6 µM | > 50 µM | 1.2 µM | – | – | – | –
7 | CN(C)c1ccc(C(=O)c2c[nH]c3ccc(Cl)cc23)cc1 [Compound 891] | 1 fold | 1 fold | 0.02 fold | 52.4% | 36.3 min | 38.2 µL/min/mg | 45.2% | 31 min | 44.7 µL/min/mg | – | – | – | 21 fold | – | – | – | – | 54.3% | 42.4 min | 32.7 µL/min/mg | –
8 | O=C(c1ccccc1)c1c[nH]c2ccc(Cl)cc12 [Compound 892] | 1 fold | 1 fold | 0.02 fold | 36.7% | 21 min | 66.1 µL/min/mg | 64.9% | 57 min | 24.3 µL/min/mg | – | – | – | 15 fold | – | – | – | – | 24.7% | 15.3 min | 90.7 µL/min/mg | –
9 | COc1ccc(C(=O)c2c[nH]c3ccc(Cl)cc23)cc1 [Compound 894] | 1 fold | 1 fold | 0.02 fold | 54.5% | 37.6 min | 36.9 µL/min/mg | 58.1% | 43 min | 32.3 µL/min/mg | – | – | – | 7 fold | – | – | – | – | 57.9% | 45.3 min | 30.6 µL/min/mg | –
